Consider 30 compounds from ChEMBL document CHEMBL1127069 (J Med Chem, 1993).

What all share (type): functional
Experiment [1] has as its target Vanilloid receptor (Rattus norvegicus, UniProt Q9ERZ8+Q9WUD2+O35433). Kind of experiment: Effective concentration for [Ca2+] uptake into dorsal root ganglia neurones in rat cultured spinal sensory neurones.
Experiment [2] relates to Mus musculus. Kind of experiment: In vivo analgesic dose in mouse tail flick latency model. In general terms: Thermal pain tests record how soon the animal reacts.
The species entered for experiment [3] is Cavia porcellus. As to the kind of experiment: In vitro effective dose for contraction of guinea pig ileum.

Broadly, the EC50 is the midpoint of the concentration-response curve. The compound `CCCCCCCCC(=O)NC(=S)NCc1ccc(O)c(OC)c1` showed a 50% effective concentration (EC50) in experiment [1] greater than 100000 nM.
Same read-out and setting: the result for `CCCCCCCCN/C(NCc1ccc(O)c(OC)c1)=[S+]\C.[I-]` reads greater than 100000 nM; that for `CCCCCCCCSC(=O)Cc1ccc(O)c(OC)c1`, 1170 nM.
Take `CCCCCCCCNC(=O)/C=C/c1ccc(O)c(OC)c1`: the 50% effective concentration (EC50) in experiment [1] was greater than 100000 nM.
For `CCCCCCCCC(=O)CCc1ccc(O)c(OC)c1`, the EC50 in experiment [1] was 2130 nM.
For `CCCCCCCCN(C)/C(S)=N/Cc1ccc(O)c(OC)c1`, in experiment [1], the EC50 came to 530 nM.
On to `CCCCCCCCNC(=O)C(O)c1ccc(O)c(OC)c1` (stereo unspecified), for which the concentration for a half-maximal effect (EC50) in experiment [1] is 1160 nM.
The term ED50 denotes the dose at which the effect has come halfway, by size or by number of responders. A lower ED50 goes with greater potency. `CCCCCCCC/N=C(\S)NCc1ccc(O)c(OC)c1` yielded a median effective dose (ED50) in experiment [2] of 3.2 µmol/kg.
With `CCCCCCCCC(=O)Nc1ccc(O)c(OC)c1`, the EC50 in experiment [3] stood at 1170 nM; in experiment [1], 4480 nM. Besides, the 50% effective dose (ED50) in experiment [2] is greater than 50 µmol/kg.
As for `CCCCCCCCOC(=O)Cc1ccc(O)c(OC)c1`, the EC50 in experiment [1] was found to be 670 nM.
For the compound `CCCCCCCCS(=O)(=O)NCc1ccc(O)c(OC)c1`, the EC50 in experiment [3] came to 2900 nM; in experiment [1] it was 1320 nM. Further, the ED50 in experiment [2] was greater than 50 µmol/kg.
In experiment [1], `CCCCCCCCN/C(=C\[N+](=O)[O-])NCc1ccc(O)c(OC)c1` came in with a concentration for a half-maximal effect (EC50) greater than 100000 nM.
`CCCCCCCC/C(S)=N\Cc1ccc(O)c(OC)c1`: the concentration giving a half-maximal response (EC50) amounted to 1230 nM in experiment [3] and 280 nM in experiment [1]. This compound also came in with an ED50 in experiment [2] of 38 µmol/kg.
In turn, `CCCCCCCCC(=O)NCCc1ccc(O)c(OC)c1` had a half-maximal effective concentration (EC50) in experiment [1] of 18300 nM.
In experiment [1], `CCCCCCCCNC(=O)Cc1ccc(O)c(OC)c1` showed a 50% effective concentration (EC50) of 300 nM. The 50% effective dose (ED50) in experiment [2] worked out at 9.2 µmol/kg.
In the case of `CCCCCCCCNC(=O)NCc1ccc(O)c(OC)c1`, the concentration giving a half-maximal response (EC50) in experiment [1] was 360 nM. This counts as sub-micromolar.
The same measure, in the same setting: for `CCCCCCCCCC(=O)Cc1ccc(O)c(OC)c1` the value was 3780 nM.
`CCCCCCCC/N=C(/S)Nc1ccc(O)c(OC)c1`: the concentration giving a half-maximal response (EC50) in experiment [3] is 2560 nM; in experiment [1], 2570 nM. For the same compound, the 50% effective dose (ED50) in experiment [2] is greater than 50 µmol/kg.
`CCCCCCCCC(=O)N(C)Cc1ccc(O)c(OC)c1` yielded an EC50 in experiment [1] greater than 100000 nM.
Compound `CCCCCCCCNC(=O)CCc1ccc(O)c(OC)c1` registered an EC50 in experiment [1] of 2320 nM.
`CCCCCCCCCCCc1ccc(O)c(OC)c1` displayed an EC50 in experiment [1] greater than 100000 nM.
The compound `CCCCCCCCC(=O)/C=C/c1ccc(O)c(OC)c1` had a 50% effective concentration (EC50) in experiment [1] greater than 100000 nM.
Still for that read-out and setting: for `CCCCCCCCC(=O)OCc1ccc(O)c(OC)c1` the value was 14200 nM; for `CCCCCCCCN(C)C(=O)Cc1ccc(O)c(OC)c1`, 6290 nM; for `CCCCCCCCNC(=O)/C=C\c1ccc(O)c(OC)c1`, 17900 nM.
In turn, `CCCCCCCCNC(=O)c1ccc(O)c(OC)c1` registered a concentration for a half-maximal effect (EC50) in experiment [1] greater than 100000 nM.
For the compound `CCCCCCCC/N=C(/NC#N)NCc1ccc(O)c(OC)c1`, the figures for the EC50 in experiment [3] and in experiment [1] were 6350 nM and 3280 nM, respectively. This compound also displayed an ED50 in experiment [2] greater than 50 µmol/kg.
Take `CCCCCCCC/N=C(/S)N(C)Cc1ccc(O)c(OC)c1`: the EC50 in experiment [1] was greater than 100000 nM.
Turning to `COc1cc(CNC(=O)CCCC/C=C/C(C)C)ccc1O` [CAPSAICIN], in experiment [2], the ED50 stood at 15 µmol/kg.
As to `CCCCCCCCC(=O)NCc1ccc(O)c(OC)c1` [NONIVAMIDE], it took a dose of 5 µmol/kg to reach the 50% effect level in experiment [2] (ED50).
